Legend:
[1] = test system: HeLa human cervical tumor cells; experiment: HeLa cell proliferation assay (crystal violet staining); format: cell-based; settings: 96 h, 4 days incubation, read-out: Inhibition of cell proliferation, cell Line: HeLa IC50
Experimental: Cultivated tumor cells (MCF7, hormone dependent human mammary carcinoma cells, ATCC HTB22; NCI-H460, human non-small cell lung carcinoma cells, ATCC HTB-177; DU 145, hormone-independent human prostate carcinoma cells, ATCC HTB-81; HeLa-MaTu, human cervical carcinoma cells, EPO-GmbH, Berlin; HeLa-MaTu-ADR, multidrug-resistant human cervical carcinoma cells, EPO-GmbH, Berlin; HeLa human cervical tumor cells, ATCC CCL-2; B16F10 mouse melanoma cells, ATCC CRL-6475) were plated at a density of 5000 cells/well (MCF7, DU145, HeLa-MaTu-ADR), 3000 cells/well (NCI-H460, HeLa-MaTu, HeLa), or 1000 cells/well (B16F10) in a 96-well multititer plate in 200 μl of their respective growth medium supplemented 10% fetal calf serum. After 24 hours, the cells of one plate (zero-point plate) were stained with crystal violet (see below), while the medium of the other plates was replaced by fresh culture medium (200 μl), to which the test substances were added in various concentrations (0 μM, as well as in the range of 0.01-30 μM; the final concentration of the solvent dimethyl sulfoxide was 0.5%). The cells were incubated for 4 days in the presence of test substances. Cell proliferation was determined by staining the cells with crystal violet: the cells were fixed by adding 20 μl/measuring point of an 11% glutaric aldehyde solution for 15 minutes at room temperature. After three washing cycles of the fixed cells with water, the plates were dried at room temperature. The cells were stained by adding 100 μl/measuring point of a 0.1% crystal violet solution (pH 3.0). After three washing cycles of the stained cells with water, the plates were dried at room temperature. The dye was dissolved by adding 100 μl/measuring point of a 10% acetic acid solution. The extinction was determined by photometry at a wavelength of 595 nm. The change of cell number, in percent, was calculated by normalization of the measured values to the extinction values of the zero-point plate (=0%) and the extinction of the untreated (0 μm) cells (=100%). The IC50 values were determined by means of a 4 parameter fit using the company's own software.
The compounds of the present invention are characterized by the following IC50 values, determined in a HeLa cell proliferation assay (as described above): […]

[2] = target: T1, human kinase Mps-1 (Homo sapiens, UniProt P33981); experiment: Mps-1 kinase assay (TR-FRET, 10 μM ATP); format: biochemical; settings: N-terminally GST-tagged human full length recombinant Mps-1, read-out: Mps-1 Inhibition, IC50 (Assay with 10 μM ATP)
T1 construct: N-terminally GST-tagged human full length recombinant Mps-1 kinase; purchased Invitrogen, Karslruhe, Germany PV4071
T1 sequence (P33981 1-857): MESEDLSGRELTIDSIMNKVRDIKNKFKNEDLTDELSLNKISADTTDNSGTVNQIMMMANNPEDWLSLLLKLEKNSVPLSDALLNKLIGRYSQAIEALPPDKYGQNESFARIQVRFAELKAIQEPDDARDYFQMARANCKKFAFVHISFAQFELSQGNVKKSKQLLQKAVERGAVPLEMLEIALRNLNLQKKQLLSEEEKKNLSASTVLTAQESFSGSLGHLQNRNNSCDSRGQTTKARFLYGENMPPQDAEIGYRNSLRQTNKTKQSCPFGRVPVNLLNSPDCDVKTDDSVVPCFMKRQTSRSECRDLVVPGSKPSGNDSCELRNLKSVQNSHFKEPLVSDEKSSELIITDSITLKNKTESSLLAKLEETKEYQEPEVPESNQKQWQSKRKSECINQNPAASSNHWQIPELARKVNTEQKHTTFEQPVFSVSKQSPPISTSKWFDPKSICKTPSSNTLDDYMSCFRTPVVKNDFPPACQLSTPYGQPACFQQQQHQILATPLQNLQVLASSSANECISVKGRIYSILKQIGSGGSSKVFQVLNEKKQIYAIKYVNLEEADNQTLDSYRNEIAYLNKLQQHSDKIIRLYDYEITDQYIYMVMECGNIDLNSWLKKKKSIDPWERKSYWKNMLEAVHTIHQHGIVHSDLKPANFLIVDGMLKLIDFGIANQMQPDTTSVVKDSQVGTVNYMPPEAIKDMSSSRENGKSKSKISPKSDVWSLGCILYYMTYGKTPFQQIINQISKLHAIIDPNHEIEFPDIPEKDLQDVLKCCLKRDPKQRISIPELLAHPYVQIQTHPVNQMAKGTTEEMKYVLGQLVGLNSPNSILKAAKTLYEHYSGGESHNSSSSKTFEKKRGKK
Experimental: The human kinase Mps-1 phosphorylates a biotinylated substrate peptide. Detection of the phosphorylated product is achieved by time-resolved fluorescence resonance energy transfer (TR-FRET) from Europium-labelled anti-phospho-Serine/Threonine antibody as donor to streptavidin Labelled with cross-linked allophycocyanin (SA-XLent) as acceptor. Compounds are tested for their inhibition of the kinase activity.
N-terminally GST-tagged human full length recombinant Mps-1 kinase (purchased from Invitrogen, Karslruhe, Germany, cat. no PV4071) was used. As substrate for the kinase reaction a biotinylated peptide of the amino-acid sequence PWDPDDADITEILG (C-terminus in amide form, purchased from Biosynthan GmbH, Berlin) was used.
For the assay 50 nl of a 100-fold concentrated solution of the test compound in DMSO was pipetted into a black low volume 384 well microtiter plate (Greiner Bio-One, Frickenhausen, Germany), 2 μl of a solution of Mps-1 in assay buffer [0.1 mM sodium-ortho-vanadate, 10 mM MgCl2, 2 mM DTT, 25 mM Hepes pH 7.7, 0.05% BSA, 0.001% Pluronic F-127] were added and the mixture was incubated for 15 min at 22° C. to allow pre-binding of the test compounds to Mps-1 before the start of the kinase reaction. Then the kinase reaction was started by the addition of 3 μl of a solution of […] (ATP, 16.7 μM=>final conc. in the 5 μl assay volume is 10 μM) and peptide substrate (1.67 μM=>final conc. in the 5 μl assay volume is 1 μM) in assay buffer and the resulting mixture was incubated for a reaction time of 60 min at 22° C. The concentration of Mps-1 in the assay was adjusted to the activity of the enzyme lot and was chosen appropriate to have the assay in the linear range, typical enzyme concentrations were in the range of about 1 nM (final conc. in the 5 μl assay volume). The reaction was stopped by the addition of 3 μl of a solution of HTRF detection reagents (100 mM Hepes pH 7.4, 0.1% BSA, 40 mM EDTA, 140 nM Streptavidin-XLent [#61GSTXLB, Fa. Cis Biointernational, Marcoule, France], 1.5 nM anti-phospho(Ser/Thr)-Europium-antibody [#AD0180, PerkinElmer LAS, Rodgau-Jügesheim, Germany].
The resulting mixture was incubated 1 h at 22° C. to allow the binding of the phosphorylated peptide to the anti-phospho(Ser/Thr)-Europium-antibody. Subsequently the amount of phosphorylated substrate was evaluated by measurement of the resonance energy transfer from the Europium-labelled anti-phospho(Ser/Thr) antibody to the Streptavidin-XLent. Therefore, the fluorescence emissions at 620 nm and 665 nm after excitation at 350 nm was measured in a Viewlux TR-FRET reader (PerkinElmer LAS, Rodgau-Jügesheim, Germany). The “blank-corrected normalized ratio” (a Viewlux specific readout, similar to the traditional ratio of the emissions at 665 nm and at 622 nm, in which blank and Eu-donor crosstalk are subtracted from the 665 nm signal before the ratio is calculated) was taken as the measure for the amount of phosphorylated substrate. The data were normalised (enzyme reaction without inhibitor=0% inhibition, all other assay components but no enzyme=100% inhibition).

IC50 [1]	IC50 [2]	Compound
501 nM	≤ 1 nM	COc1cc(S(C)(=O)=O)ccc1Nc1cn2nc(-c3ccc(NC(=O)[C@H](C)c4ccc(F)cc4)cc3)ccc2n1 [Example 6.1, (2R)-2-(4-fluorophenyl)-N-[4-(2-{[2-methoxy-4-(methylsulfonyl)phenyl]amino}imidazo[1,2-b]pyridazin-6-yl)phenyl]propanamide]
118 nM	≤ 1 nM	COc1cc(S(C)(=O)=O)ccc1Nc1nc2cc(-c3ccc(NC(=O)[C@H](C)c4ccc(F)cc4)cc3)ccn2n1 [Example 5.1, (2R)-2-(4-fluorophenyl)-N-[4-(2-{[2-methoxy-4-(methylsulfonyl)phenyl]amino}[1,2,4]triazolo[1,5-a]pyridin-7-yl)phenyl]propanamide]
13 nM	≤ 1 nM	C[C@@H](C(=O)Nc1ccc(-c2ccn3nc(Nc4ccc(C(=O)N5CC(F)C5)cc4OCC(F)(F)F)nc3c2)cc1)c1ccc(F)cc1 [Example 5.3, (2R)—N-{4-[2-({4-[(3-fluoroazetidin-1-yl)carbonyl]-2-(2,2,2-trifluoroethoxy)phenyl}amino)[1,2,4]triazolo[1,5-a]pyridin-7-yl]phenyl}-2-(4-fluorophenyl)propanamide]
–	84.1 nM	N#Cc1ccccc1Nc1nc2cnc(-c3cccc(C(=O)NC4CC4)c3)cn2n1 [Example 3.3, 3-{2-[(2-cyanophenyl)amino][1,2,4]triazolo[1,5-a]pyrazin-6-yl}-N-cyclopropylbenzamide]
24 nM	≤ 1 nM	COc1cc(C(=O)N2CC(F)C2)ccc1Nc1nc2cc(-c3ccc(NC(=O)[C@H](C)c4ccc(F)cc4)cc3)ccn2n1 [Example 5.2, (2R)—N-{4-[2-({4-[(3-fluoroazetidin-1-yl)carbonyl]-2-methoxyphenyl}amino)[1,2,4]triazolo[1,5-a]pyridin-7-yl]phenyl}-2-(4-fluorophenyl)propanamide]
57 nM	≤ 1 nM	COc1cc(C(=O)N2CCC2)ccc1Nc1nc2cc(-c3ccc(NC(=O)[C@H](C)c4ccc(F)cc4)cc3)ccn2n1 [Example 5.6, (2R)—N-[4-(2-{[4-(azetidin-1-ylcarbonyl)-2-methoxyphenyl]amino}[1,2,4]triazolo[1,5-a]pyridin-7-yl)phenyl]-2-(4-fluorophenyl)propanamide]
–	≤ 1 nM	COc1cc(S(C)(=O)=O)cnc1Nc1cn2cc(-c3ccc(NC(=O)[C@H](C)c4ccc(F)cc4)cc3)ccc2n1 [Example 7.1, (2R)-2-(4-fluorophenyl)-N-[4-(2-{[3-methoxy-5-(methylsulfonyl)pyridin-2-yl]amino}imidazo[1,2-a]pyridin-6-yl)phenyl]propanamide]
82 nM	≤ 1 nM	C[C@@H](C(=O)Nc1ccc(-c2ccn3nc(Nc4ccc(S(C)(=O)=O)cc4OCC(F)(F)F)nc3c2)cc1)c1ccc(F)cc1 [Example 5.5, (2R)-2-(4-fluorophenyl)-N-[4-(2-{[4-(methylsulfonyl)-2-(2,2,2-trifluoroethoxy)phenyl]amino}[1,2,4]triazolo[1,5-a]pyridin-7-yl)phenyl]propanamide]

Continued, compound first:

Compound	IC50 [1]	IC50 [2]
COc1cc(N2CCN(C)CC2)ccc1Nc1nc2cnc(-c3ccc(NC(=O)Cc4ccc(F)cc4)cc3)cn2n1 [Example 2.4, 2-(4-fluorophenyl)-N-[4-(2-{[2-methoxy-4-(4-methylpiperazin-1-yl)phenyl]amino}[1,2,4]triazolo[1,5-a]pyrazin-6-yl)phenyl]acetamide]	–	≤ 1 nM
N#Cc1c(F)cccc1Nc1nc2cnc(-c3ccc(NC(=O)Cc4ccccc4)cc3)cn2n1 [Example 2.5, N-(4-{2-[(2-cyano-3-fluorophenyl)amino][1,2,4]triazolo[1,5-a]pyrazin-6-yl}phenyl)-2-phenylacetamide]	–	≤ 1 nM
COc1cc(C(C)(C)O)ccc1Nc1nc2ccc(-c3ccc(NC(=O)Cc4ccc(F)cc4)cc3)nn2n1 [Example 1.2, 2-(4-fluorophenyl)-N-[4-(2-{[4-(2-hydroxypropan-2-yl)-2-methoxyphenyl]amino}[1,2,4]triazolo[1,5-b]pyridazin-6-yl)phenyl]acetamide]	–	≤ 1 nM
COc1cc(C(=O)N2CCOCC2)ccc1Nc1nc2ccc(-c3ccc(NC(=O)Cc4ccc(F)cc4)cc3)nn2n1 [Example 1.1, 2-(4-fluorophenyl)-N-[4-(2-{[2-methoxy-4-(morpholin-4-ylcarbonyl)phenyl]amino}[1,2,4]triazolo[1,5-b]pyridazin-6-yl)phenyl]acetamide]	–	≤ 1 nM
N#Cc1ccccc1Nc1nc2cnc(-c3ccc(NC(=O)Cc4ccc(F)cc4)cc3)cn2n1 [Example 2.1, N-(4-{2-[(2-cyanophenyl)amino][1,2,4]triazolo[1,5-a]pyrazin-6-yl}phenyl)-2-(4-fluorophenyl)acetamide]	–	≤ 1 nM
COc1cc(S(C)(=O)=O)ccc1Nc1nc2cnc(-c3ccc(NC(=O)Cc4ccc(F)cc4)cc3)cn2n1 [Example 2.8, 2-(4-fluorophenyl)-N-[4-(2-{[2-methoxy-4-(methylsulfonyl)phenyl]amino}[1,2,4]triazolo[1,5-a]pyrazin-6-yl)phenyl]acetamide]	–	≤ 1 nM
